Patent US9850283B2, “Macrocyclic inhibitors of the PD-1/PD-L1 and CD80(B7-1)/PD-L1 protein/protein interactions” (BRISTOL-MYERS SQUIBB COMPANY, priority 2013, dated 2017)
Where two headings read alike, the source gives them in different places. Positions of bridges follow the written chain, without caps; N, C: chain ends. Non-standard residues stand in square brackets, D forms with d. Residues, ends and D or L forms follow the SMILES beside them. ξ: configuration not given here. *: point of attachment. Pro(trans-4-F) = O=C(O)[C@@H]1C[C@@H](F)CN1; Bta = N[C@@H](Cc1csc2ccccc12)C(=O)O; Cyclobutanecarbonyl = O=C(C1CCC1)*; cisHyp = O=C(O)[C@@H]1C[C@H](O)CN1; Hyp = O=C(O)[C@@H]1C[C@@H](O)CN1; NMeF = CN[C@@H](Cc1ccccc1)C(=O)O; AllylGly = C=CC[C@H](N)C(=O)O; NMeNle = CCCC[C@H](NC)C(=O)O; NMeM = CN[C@@H](CCSC)C(=O)O; NMeA = CN[C@@H](C)C(=O)O; Orn = NCCC[C@H](N)C(=O)O; dThz = O=C(O)[C@H]1CSCN1; Dap = NC[C@H](N)C(=O)O; ξC = NC(CS)C(=O)O; Sar = CNCC(=O)O

Key:
Human PD-L1/PD-1 = target: T1, Human PD-L1/PD-1 (Homo sapiens, UniProt Q9NZQ7); assay: HTRF PD-1-Ig/PD-L1-His binding assay (human PD-L1)
T1 construct: made in house; host or cells: HEK293T
T1 sequence (Q9NZQ7 with tags, fused parts or gaps): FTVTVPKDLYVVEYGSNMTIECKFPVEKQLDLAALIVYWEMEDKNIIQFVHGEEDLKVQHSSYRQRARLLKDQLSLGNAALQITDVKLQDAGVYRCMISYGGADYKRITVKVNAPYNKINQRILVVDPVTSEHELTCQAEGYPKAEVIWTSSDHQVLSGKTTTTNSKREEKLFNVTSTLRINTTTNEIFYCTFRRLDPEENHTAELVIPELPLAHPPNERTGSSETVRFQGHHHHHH
Procedure, shortened: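 Interaction of Fc-tagged soluble PD-1 with His-tagged soluble PD-L1 is monitored by time-resolved FRET. Donor is europium cryptate anti-Ig (1 nM final) and acceptor is APC anti-His (20 nM final). Assay buffer is dPBS with 0.1% BSA and 0.05% Tween-20.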

[1] = target: T2, LK35.2-hPD-L1 cells / PE-labeled PD-1-Ig (Homo sapiens, UniProt Q9NZQ7); assay: LK35.2-hPD-L1 cell binding high-content screening assay; format: cell-based
T2 construct: expressed in transfected cells; host or cells: LK35.2 mouse B cell line
T2 sequence (Q9NZQ7 19-290): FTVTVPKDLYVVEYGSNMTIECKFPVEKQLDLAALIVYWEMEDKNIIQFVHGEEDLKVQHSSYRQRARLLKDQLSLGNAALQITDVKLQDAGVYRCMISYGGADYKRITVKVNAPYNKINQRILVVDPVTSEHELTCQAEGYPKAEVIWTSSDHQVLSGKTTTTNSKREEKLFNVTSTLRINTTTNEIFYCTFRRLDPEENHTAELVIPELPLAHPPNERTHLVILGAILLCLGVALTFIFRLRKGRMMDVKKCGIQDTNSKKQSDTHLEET
Procedure, shortened: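 Compound effect on PD-1/PD-L1 binding is measured by imaging cell-associated phycoerythrin signal. Human PD-1-Ig (PE on Ig tag, 1 nM final) is applied with compound to a murine B cell line overexpressing human PD-L1 for 1 h at 37 °C in serum-containing RPMI.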

[2] = cluster symbol, read-out: HTRF IC50 cluster
[3] = cluster symbol, cell line of CBA not given (LK35.2-hPD-L1 or 293T-hPD-L1), read-out: CBA IC50 cluster
[4] = cell binding assay, cell line not given, cluster symbol, read-out: CBA IC50 cluster

Row | SMILES | IC50 (Human PD-L1/PD-1; [2]) [nM] | IC50 [1, 3] [nM] | IC50 (Human PD-L1/PD-1; value given instead of cluster, read-out: HTRF IC50 value) [nM] | IC50 ([1]; cell binding assay, cell line not given, value given instead of cluster, read-out: CBA IC50 value) [nM] | IC50 [1, 4] [nM]
1 | CCCC[C@H]1C(=O)N(C)CC(=O)N[C@@H](CN)C(=O)N[C@@H](C(C)C)C(=O)N(C)[C@@H](Cc2ccccc2)C(=O)N[C@@H](Cc2ccc(O)cc2)C(=O)N(C)CC(=O)N[C@@H](Cc2c[nH]c3ccccc23)C(=O)N[C@@H](Cc2ccc(O)cc2)C(=O)N[C@@H](CC(C)C)C(=O)N[C@H](C(=O)NCC(N)=O)CSCC(=O)N[C@@H](Cc2ccccc2)C(=O)N(C)[C@@H](Cc2ccccc2)C(=O)N1C [Example 3152] ({CH2CO}-F[NMeF][NMeNle][Sar][Dap]V[NMeF]Y[Sar]WYLCG-NH2; thioether N-13) | 6.76 to 30.3 | 4.78 to 72.9 |  |  | 
2 | CCCC[C@H]1C(=O)N2CSC[C@@H]2C(=O)N[C@@H](CC(=O)O)C(=O)N[C@@H](C(C)C)C(=O)N(C)[C@@H](Cc2ccccc2)C(=O)N[C@@H](Cc2ccc(O)cc2)C(=O)N(C)CC(=O)N[C@@H](Cc2c[nH]c3ccccc23)C(=O)N[C@@H](Cc2ccc(O)cc2)C(=O)N[C@@H](CC(C)C)C(=O)N[C@H](C(=O)NCC(N)=O)CSCC(=O)N[C@@H](Cc2ccccc2)C(=O)N(C)[C@@H](Cc2ccccc2)C(=O)N1C [Example 3600] ({CH2CO}-F[NMeF][NMeNle][dThz]DV[NMeF]Y[Sar]WYLCG-NH2; thioether N-13) |  |  | 6.1 | 3.9 | 
3 | CCCC[C@H]1C(=O)N(C)[C@@H](CCCC)C(=O)N[C@@H](CCCNC(=N)N)C(=O)N[C@H](C(=O)NCC(N)=O)CSCC(=O)N[C@@H](Cc2ccc(O)cc2)C(=O)N(C)[C@@H](C)C(=O)N[C@@H](CC(N)=O)C(=O)N2CCC[C@H]2C(=O)N[C@@H](CN)C(=O)N[C@@H](CCC(N)=O)C(=O)N2C[C@H](O)C[C@H]2C(=O)N[C@@H](Cc2c[nH]c3ccccc23)C(=O)N[C@@H](CO)C(=O)N[C@@H](Cc2csc3ccccc23)C(=O)N1C [Example 6023] ({CH2CO}-Y[NMeA]NP[Dap]Q[Hyp]WS[Bta][NMeNle][NMeNle]RCG-NH2; thioether N-14) | 6.76 to 30.3 |  |  |  | 0.158 to 4.71
4 | CCCC[C@H]1C(=O)N(C)[C@@H](CCCC)C(=O)N[C@@H](CCCNC(=N)N)C(=O)N[C@H](C(=O)NCC(N)=O)CSCC(=O)N[C@@H](Cc2ccccc2)C(=O)N(C)[C@@H](C)C(=O)N[C@@H](CC(N)=O)C(=O)N2CCC[C@H]2C(=O)N[C@@H](CC(N)=O)C(=O)N[C@@H](CC(C)C)C(=O)N(C)CC(=O)N[C@@H](Cc2c[nH]c3ccccc23)C(=O)N[C@@H](CO)C(=O)N[C@@H](Cc2c[nH]c3ccccc23)C(=O)N1C [Example 1063] ({CH2CO}-F[NMeA]NPNL[Sar]WSW[NMeNle][NMeNle]RCG-NH2; thioether N-14) | > 30.5 | > 74.3 |  |  | 
5 | CCCC[C@H]1C(=O)N(C)[C@@H](CCCC)C(=O)N[C@@H](CCCNC(=N)N)C(=O)N[C@H](C(=O)NCC(N)=O)CSCC(=O)N[C@@H](Cc2ccccc2)C(=O)N(C)[C@@H](C)C(=O)N[C@@H](CC(N)=O)C(=O)N2CCC[C@H]2C(=O)N[C@@H](Cc2cnc[nH]2)C(=O)N[C@@H](CC(C)C)C(=O)N2C[C@H](F)C[C@H]2C(=O)N[C@@H](Cc2c[nH]c3ccccc23)C(=O)N[C@@H](CO)C(=O)N[C@@H](Cc2c[nH]c3ccccc23)C(=O)N1C [Example 5033] ({CH2CO}-F[NMeA]NPHL[Pro(trans-4-F)]WSW[NMeNle][NMeNle]RCG-NH2; thioether N-14) | 6.76 to 30.3 |  |  |  | 4.78 to 72.9
6 | CCCC[C@H]1C(=O)N(C)[C@@H](CCSC)C(=O)N[C@@H](CCCNC(=N)N)C(=O)NC(C(=O)NCC(N)=O)CSCC(=O)N[C@@H](Cc2ccc(O)cc2)C(=O)N(C)[C@@H](C)C(=O)N[C@@H](CC(N)=O)C(=O)N2CCC[C@H]2C(=O)N[C@@H](Cc2cnc[nH]2)C(=O)N[C@@H](CC(C)C)C(=O)N2CCC[C@H]2C(=O)N[C@@H](Cc2c[nH]c3ccccc23)C(=O)N[C@@H](CO)C(=O)N[C@@H](Cc2c[nH]c3ccccc23)C(=O)N1C (stereo partly shown) [Example 9030] ({CH2CO}-Y[NMeA]NPHLPWSW[NMeNle][NMeM]R[ξC]G-NH2; thioether N-14) | 0.385 to 6.74 |  |  |  | 0.158 to 4.71
7 | CCCC[C@H]1C(=O)N(C)CC(=O)N[C@@H](CC(=O)O)C(=O)N[C@@H](C(C)C)C(=O)N(C)[C@@H](Cc2ccccc2)C(=O)N[C@@H](CCCNC(=N)N)C(=O)N(C)CC(=O)N[C@@H](Cc2c[nH]c3ccccc23)C(=O)N[C@@H](Cc2ccc(O)cc2)C(=O)N[C@@H](CCC(=O)O)C(=O)N[C@H](C(=O)NCC(N)=O)CSCC(=O)N[C@@H](Cc2ccccc2)C(=O)N(C)[C@@H](Cc2ccccc2)C(=O)N1C [Example 3542] (HELM PEPTIDE1{[O=C(C[*:3])[*:2]].F.[meF].[CCCC[C@@H](C(=O)[*:2])N(C)[*:1]].[Sar].D.V.[meF].R.[Sar].W.Y.E.C.G.[am]}$PEPTIDE1,PEPTIDE1,1:R3-14:R3$$$V2.0) | 6.76 to 30.3 |  |  |  | 4.78 to 72.9
8 | CC(C)C[C@@H]1NC(=O)[C@H](Cc2c[nH]cn2)NC(=O)[C@@H]2CCCN2C(=O)[C@H](CC(N)=O)NC(=O)[C@H](C)N(C)C(=O)[C@H](Cc2ccccc2)NC(=O)CSC[C@@H](C(=O)NCC(N)=O)NC(=O)[C@H](CCCNC(=N)N)NC(=O)[C@H](C)N(C)C(=O)[C@H](CNC(=O)C2CCC2)NC(=O)[C@H](Cc2c[nH]c3ccccc23)NC(=O)[C@H](CO)NC(=O)[C@H](Cc2c[nH]c3ccccc23)NC(=O)CN(C)C1=O [Example 1033] ({CH2CO}-F[NMeA]NPHL[Sar]WSW[Dap](Cyclobutanecarbonyl)[NMeA]RCG-NH2; thioether N-14) | > 30.5 | > 74.3 |  |  | 
9 | CCCC[C@H]1C(=O)N(C)[C@@H](CCCC)C(=O)N[C@@H](CCCNC(=N)N)C(=O)N[C@H](C(=O)NCC(N)=O)CSCC(=O)N[C@@H](Cc2ccc(O)cc2)C(=O)N(C)[C@@H](C)C(=O)N[C@@H](CCCN)C(=O)N2CCC[C@H]2C(=O)N[C@@H](C)C(=O)N[C@@H](CCC(=O)O)C(=O)N2C[C@@H](O)C[C@H]2C(=O)N[C@@H](Cc2c[nH]c3ccccc23)C(=O)N[C@@H](CO)C(=O)N[C@@H](Cc2c[nH]c3ccccc23)C(=O)N1C [Example 1147] ({CH2CO}-Y[NMeA][Orn]PAE[cisHyp]WSW[NMeNle][NMeNle]RCG-NH2; thioether N-14) | 6.76 to 30.3 | 4.78 to 72.9 |  |  | 
10 | CCCC[C@H]1C(=O)N(C)[C@@H](CCCC)C(=O)N[C@@H](CCCNC(=N)N)C(=O)N[C@H](C(=O)NCC(=O)O)CSCC(=O)N[C@@H](Cc2ccc(O)cc2)C(=O)N(C)[C@@H](C)C(=O)N[C@@H](CC(N)=O)C(=O)N2CCC[C@H]2C(=O)N[C@@H](CN)C(=O)N[C@@H](CC(C)C)C(=O)N2C[C@@H](O)C[C@H]2C(=O)N[C@@H](Cc2c[nH]c3ccccc23)C(=O)N[C@@H](CO)C(=O)N[C@@H](Cc2csc3ccccc23)C(=O)N1C [Example 1141] ({CH2CO}-Y[NMeA]NP[Dap]L[cisHyp]WS[Bta][NMeNle][NMeNle]RCG-OH; thioether N-14) | 0.385 to 6.74 | 0.158 to 4.71 |  |  | 
11 | CCCC[C@H]1C(=O)N[C@@H](CCCNC(=N)N)C(=O)NC(C(=O)NCC(N)=O)CSCC(=O)N[C@@H](Cc2ccc(O)cc2)C(=O)N(C)[C@@H](C)C(=O)N[C@@H](CC(N)=O)C(=O)N2CCC[C@H]2C(=O)N[C@@H](CN)C(=O)N[C@@H](CC(C)C)C(=O)N2CCC[C@H]2C(=O)N[C@@H](Cc2c[nH]c3ccccc23)C(=O)N[C@@H](CO)C(=O)N[C@@H](Cc2csc3ccccc23)C(=O)N(C)[C@@H](CCSC)C(=O)N1C (stereo partly shown) [Example 9090] ({CH2CO}-Y[NMeA]NP[Dap]LPWS[Bta][NMeM][NMeNle]R[ξC]G-NH2; thioether N-14) | 0.385 to 6.74 |  |  |  | 0.158 to 4.71
12 | CCCC[C@H]1C(=O)N(C)[C@@H](CCCC)C(=O)N[C@@H](CC(C)C)C(=O)N[C@H](C(=O)NCC(N)=O)CSCC(=O)N[C@@H](Cc2ccc(O)cc2)C(=O)N(C)[C@@H](C)C(=O)N[C@@H](CC(N)=O)C(=O)N2CCC[C@H]2C(=O)N[C@@H](Cc2c[nH]cn2)C(=O)N[C@@H](CCC(N)=O)C(=O)N2CCC[C@H]2C(=O)N[C@@H](Cc2c[nH]c3ccccc23)C(=O)N[C@@H](CO)C(=O)N[C@@H](Cc2c[nH]c3ccccc23)C(=O)N1C [Example 5079] ({CH2CO}-Y[NMeA]NPHQPWSW[NMeNle][NMeNle]LCG-NH2; thioether N-14) | 0.385 to 6.74 |  |  |  | 4.78 to 72.9
13 | CCCC[C@H]1C(=O)N(C)[C@@H](CCCC)C(=O)N[C@@H](CCCN)C(=O)N[C@H](C(=O)NCC(N)=O)CSCC(=O)N[C@@H](Cc2ccc(O)cc2)C(=O)N(C)[C@@H](C)C(=O)N[C@@H](CC(=O)O)C(=O)N2CCC[C@H]2C(=O)N[C@@H](Cc2c[nH]cn2)C(=O)N[C@@H](CCC(N)=O)C(=O)N2C[C@H](O)C[C@H]2C(=O)N[C@@H](Cc2c[nH]c3ccccc23)C(=O)N[C@@H](CO)C(=O)N[C@@H](Cc2c[nH]c3ccccc23)C(=O)N1C [Example 5114] ({CH2CO}-Y[NMeA]DPHQ[Hyp]WSW[NMeNle][NMeNle][Orn]CG-NH2; thioether N-14) | 0.385 to 6.74 |  |  |  | 0.158 to 4.71
14 | C=CC[C@@H]1NC(=O)[C@H](Cc2c[nH]c3ccccc23)NC(=O)[C@@H]2CCCN2C(=O)[C@H](CC(C)C)NC(=O)[C@H](Cc2cnc[nH]2)NC(=O)[C@@H]2CCCN2C(=O)[C@H](CC(N)=O)NC(=O)[C@H](C)N(C)C(=O)[C@H](Cc2ccc(O)cc2)NC(=O)CSC[C@@H](C(=O)NCC(N)=O)NC(=O)[C@H](C)NC(=O)[C@H](CCCC)N(C)C(=O)[C@H](CCCC)N(C)C(=O)[C@H](Cc2c[nH]c3ccccc23)NC1=O [Example 7020] ({CH2CO}-Y[NMeA]NPHLPW[AllylGly]W[NMeNle][NMeNle]ACG-NH2; thioether N-14) | 0.385 to 6.74 |  |  |  | 4.78 to 72.9
